Calls of active or inactive are those of the source.
Tests used:
Beta-galactosidase = Beta-galactosidase (Escherichia coli, UniProt Q8VNN2); assay: Dose response counterscreen for EBI2 assay utilizing the enzyme, b-galactosidase.; format: functional
[1] = target: T1, High affinity choline transporter 1 (Homo sapiens, UniProt Q9GZV3); assay: inhibition of SLC5A7-mediated choline transport – cell-based, HEK-293 hCHT, [3H]-choline uptake, dose response (AID 652177); format: functional
T1 sequence (Q9GZV3 whole entry): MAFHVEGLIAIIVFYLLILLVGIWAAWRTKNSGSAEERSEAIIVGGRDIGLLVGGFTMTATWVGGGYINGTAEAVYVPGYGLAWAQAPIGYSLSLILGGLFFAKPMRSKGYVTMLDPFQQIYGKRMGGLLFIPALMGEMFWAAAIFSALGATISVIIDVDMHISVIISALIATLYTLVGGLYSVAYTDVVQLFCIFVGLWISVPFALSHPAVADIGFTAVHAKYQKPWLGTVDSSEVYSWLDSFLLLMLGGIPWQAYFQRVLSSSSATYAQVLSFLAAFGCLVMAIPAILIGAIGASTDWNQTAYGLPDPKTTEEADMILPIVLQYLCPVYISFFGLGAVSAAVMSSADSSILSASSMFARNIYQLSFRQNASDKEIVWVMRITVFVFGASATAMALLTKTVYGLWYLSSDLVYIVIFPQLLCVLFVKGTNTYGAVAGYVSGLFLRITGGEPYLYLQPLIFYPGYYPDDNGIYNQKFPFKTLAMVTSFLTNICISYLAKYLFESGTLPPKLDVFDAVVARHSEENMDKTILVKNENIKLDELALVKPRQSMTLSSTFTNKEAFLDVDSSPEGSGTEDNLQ

[2] = A2780 cell killing – plate reader, dry powder samples, cytotoxicity control, dose response (AID 743046); format: functional, cell-based
Paired box protein Pax-8 = Paired box protein Pax-8 (Homo sapiens, UniProt Q06710); assay: PAX8 transcriptional activity inhibition in RMG-I – RMG-I cells, luciferase, cherry-pick, dose response (AID 687027); format: functional, cell-based;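 note: luciferase reporter driven by Pax8 target thyroperoxidase promoter measured by SteadyGlo luminescence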
Paired box protein Pax-8, sequence (Q06710 whole entry): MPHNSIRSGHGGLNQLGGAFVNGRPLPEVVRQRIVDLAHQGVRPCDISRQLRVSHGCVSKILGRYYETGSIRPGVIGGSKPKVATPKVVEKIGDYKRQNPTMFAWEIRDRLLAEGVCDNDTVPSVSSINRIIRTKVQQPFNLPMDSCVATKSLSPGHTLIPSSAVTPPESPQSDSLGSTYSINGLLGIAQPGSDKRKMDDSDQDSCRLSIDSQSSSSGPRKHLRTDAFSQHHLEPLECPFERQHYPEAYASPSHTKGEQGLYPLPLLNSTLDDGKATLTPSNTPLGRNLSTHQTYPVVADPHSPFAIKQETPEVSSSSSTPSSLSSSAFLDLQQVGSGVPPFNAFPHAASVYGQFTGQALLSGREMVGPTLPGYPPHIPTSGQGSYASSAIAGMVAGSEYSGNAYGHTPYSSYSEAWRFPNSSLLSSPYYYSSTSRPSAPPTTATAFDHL

[3] = CTGF mRNA reduction in DLD1 cells – cell-based, DLD1 colon cancer, RT-qPCR, cherry-pick, dose response (AID 1053122); format: functional; settings: Cancer cell lines
[4] = MITF: Counter assay: A375 proliferation Measured in Cell-Based System Using Plate Reader - 2084-03_Inhibitor_Dose_DryPowder_Activity_Set8.; format: functional; settings: A-375
[5] = inhibitors of TRPM1-promoter reporter in SK-MEL-5 – cell-based, luciferase, dry powder, set 8, MITF inhibitor project, dose response (AID 624430); format: functional
[6] = MITF Orthogonal Assay: SK-MEL-5 CTG Assay Measured in Cell-Based System Using Plate Reader - 2084-02_Inhibitor_Dose_DryPowder_Activity_Set7.; format: functional
Beta-lactamase [7] = target: T2, Beta-lactamase (Pseudomonas aeruginosa, UniProt Q79MP6); assay: […] counterscreen for selective VIM-2 inhibitors: dose response biochemical high throughput screening assay to identify inhibitors of IMP-1 metallo-beta-lactamase.
T2 sequence (Q79MP6 whole entry): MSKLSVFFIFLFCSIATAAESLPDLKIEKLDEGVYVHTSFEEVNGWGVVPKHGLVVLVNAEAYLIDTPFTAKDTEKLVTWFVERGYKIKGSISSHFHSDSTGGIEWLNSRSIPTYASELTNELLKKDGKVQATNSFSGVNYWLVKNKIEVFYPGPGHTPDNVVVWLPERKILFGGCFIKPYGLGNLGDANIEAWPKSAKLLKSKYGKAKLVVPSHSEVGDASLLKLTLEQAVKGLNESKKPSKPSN

Beta-lactamase [8] = target: Beta-lactamase (Salmonella choleraesuis (strain SC-B67), UniProt Q5J463); assay: Epi-absorbance-based counterscreen for selective VIM-2 inhibitors: dose response biochemical high throughput screening assay to identify inhibitors of TEM-1 serine-beta-lactamase.
Beta-lactamase (Salmonella choleraesuis (strain SC-B67), UniProt Q5J463), sequence (Q5J463 whole entry): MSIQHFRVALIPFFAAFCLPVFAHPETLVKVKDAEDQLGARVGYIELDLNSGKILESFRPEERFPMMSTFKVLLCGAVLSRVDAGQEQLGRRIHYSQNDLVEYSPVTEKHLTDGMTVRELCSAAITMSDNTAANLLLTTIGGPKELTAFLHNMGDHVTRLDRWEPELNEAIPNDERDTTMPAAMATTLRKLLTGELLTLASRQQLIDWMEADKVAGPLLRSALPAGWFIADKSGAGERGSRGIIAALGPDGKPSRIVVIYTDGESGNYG

Beta-lactamase [9] = target: T2, Beta-lactamase; assay: inhibition of IMP-1 beta-lactamase activity – biochemical, epi-absorbance, selectivity assay for VIM-2 inhibitor project, dose response (AID 1920)
[10] = target: Matrix metalloproteinase-14 (Homo sapiens, UniProt P50281); assay: Dose Response confirmation of uHTS hits for a small molecule inhibitors of MT1-MMP activation in a fluorescence assay set 2.; format: functional
Large T antigen = Large T antigen (Simian virus 40, UniProt P03070); format: functional, Betapolyomavirus macacae;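 note: Confirmatory-stage PubChem screen for compounds that inhibit SV40 T antigen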
Large T antigen, sequence (P03070 whole entry): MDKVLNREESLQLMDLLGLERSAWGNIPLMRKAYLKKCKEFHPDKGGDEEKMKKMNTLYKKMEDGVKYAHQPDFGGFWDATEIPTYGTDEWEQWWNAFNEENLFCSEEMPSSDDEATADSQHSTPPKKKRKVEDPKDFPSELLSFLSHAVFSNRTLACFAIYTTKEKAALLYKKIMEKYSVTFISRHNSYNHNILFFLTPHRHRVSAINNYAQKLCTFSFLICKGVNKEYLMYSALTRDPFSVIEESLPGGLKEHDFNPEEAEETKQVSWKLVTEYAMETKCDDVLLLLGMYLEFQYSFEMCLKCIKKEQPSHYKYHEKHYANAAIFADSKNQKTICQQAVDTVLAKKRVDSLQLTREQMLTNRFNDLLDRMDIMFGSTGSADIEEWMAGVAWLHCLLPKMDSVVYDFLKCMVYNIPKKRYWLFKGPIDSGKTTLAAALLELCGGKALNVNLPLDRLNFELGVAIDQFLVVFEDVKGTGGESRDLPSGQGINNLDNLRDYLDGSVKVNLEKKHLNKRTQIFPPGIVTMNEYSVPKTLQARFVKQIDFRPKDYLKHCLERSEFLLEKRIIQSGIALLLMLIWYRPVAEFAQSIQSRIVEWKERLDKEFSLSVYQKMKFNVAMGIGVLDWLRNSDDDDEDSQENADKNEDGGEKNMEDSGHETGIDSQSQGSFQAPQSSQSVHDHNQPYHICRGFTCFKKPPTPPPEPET

INS1 = assay: INS-1E survival protection against cytokine death – cell-based, luminescence, retest, dose response (AID 449756); format: functional; settings: Rattus norvegicus;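 note: cell death triggered by IL-1 beta plus TNF-alpha plus IFN-gamma mixture; protective hits raise ATP signal compared with cytokine alone wells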
Protein Wnt-3a = Protein Wnt-3a (Mus musculus, UniProt P27467); assay: antagonism of Wnt3a pathway luciferase reporter – Wnt-LIGHT cells, luminescence, selectivity assay for Gli-SUFU antagonist project, dose response (AID 651570); format: functional; settings: read-out: IC50_Mean;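 note: Wnt-LIGHT reporter cells stimulated with conditioned medium from Wnt3a-producing cells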
Protein Wnt-3a, sequence (P27467 whole entry): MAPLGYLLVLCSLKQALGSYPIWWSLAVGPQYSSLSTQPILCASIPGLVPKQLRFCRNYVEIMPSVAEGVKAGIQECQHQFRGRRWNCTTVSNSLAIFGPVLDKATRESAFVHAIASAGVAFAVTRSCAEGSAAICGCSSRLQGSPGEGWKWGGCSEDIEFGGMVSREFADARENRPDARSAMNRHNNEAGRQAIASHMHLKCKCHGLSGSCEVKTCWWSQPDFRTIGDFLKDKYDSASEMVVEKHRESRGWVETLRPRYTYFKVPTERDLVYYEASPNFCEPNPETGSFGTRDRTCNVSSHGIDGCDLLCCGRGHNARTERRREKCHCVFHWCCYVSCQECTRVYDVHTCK

[11] = target: T3, Rac GTPase-activating protein 1 (Homo sapiens, UniProt Q9H0H5); assay: blockers of MgcRacGAP-driven Rac1 GTP hydrolysis – biochemical, ADP Hunter fluorescence, primary and confirmatory, confirmation (AID 624330); format: functional
T3 sequence (Q9H0H5 whole entry): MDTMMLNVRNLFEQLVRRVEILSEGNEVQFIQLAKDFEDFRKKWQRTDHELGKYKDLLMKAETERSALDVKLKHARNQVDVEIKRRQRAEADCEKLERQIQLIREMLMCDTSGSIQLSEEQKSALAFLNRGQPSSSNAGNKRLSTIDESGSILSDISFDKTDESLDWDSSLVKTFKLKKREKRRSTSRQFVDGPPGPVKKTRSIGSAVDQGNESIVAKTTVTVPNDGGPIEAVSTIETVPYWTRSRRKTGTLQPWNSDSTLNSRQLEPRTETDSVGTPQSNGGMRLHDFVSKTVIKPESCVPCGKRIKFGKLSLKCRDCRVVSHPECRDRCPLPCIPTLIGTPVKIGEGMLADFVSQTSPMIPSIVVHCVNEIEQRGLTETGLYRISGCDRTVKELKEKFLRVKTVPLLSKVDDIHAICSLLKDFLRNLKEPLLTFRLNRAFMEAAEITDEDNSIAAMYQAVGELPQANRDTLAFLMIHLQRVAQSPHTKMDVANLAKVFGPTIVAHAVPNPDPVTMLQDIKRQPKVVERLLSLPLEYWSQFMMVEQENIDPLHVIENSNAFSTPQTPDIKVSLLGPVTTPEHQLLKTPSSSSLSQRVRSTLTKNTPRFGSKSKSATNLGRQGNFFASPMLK

[12] = viability loss in HeLa cells – cytotoxicity control for MgcRacGAP inhibitor project, dose response (AID 624300); format: functional
[13] = A Cell-Based Confirmatory Screen for Compounds that Inhibit VEEV, TC-83 (5).; format: functional
[14] = Late stage assay provider results from the probe development effort to identify inhibitors of the Plasmodium falciparum M18 Aspartyl Aminopeptidase (M18AAP): radiolabel-based cell-based dose response assay to identify compounds that inhibit P. falciparum growth in RBCs, Set 2..; format: functional

Beta-galactosidase, sequence (Q8VNN2 whole entry): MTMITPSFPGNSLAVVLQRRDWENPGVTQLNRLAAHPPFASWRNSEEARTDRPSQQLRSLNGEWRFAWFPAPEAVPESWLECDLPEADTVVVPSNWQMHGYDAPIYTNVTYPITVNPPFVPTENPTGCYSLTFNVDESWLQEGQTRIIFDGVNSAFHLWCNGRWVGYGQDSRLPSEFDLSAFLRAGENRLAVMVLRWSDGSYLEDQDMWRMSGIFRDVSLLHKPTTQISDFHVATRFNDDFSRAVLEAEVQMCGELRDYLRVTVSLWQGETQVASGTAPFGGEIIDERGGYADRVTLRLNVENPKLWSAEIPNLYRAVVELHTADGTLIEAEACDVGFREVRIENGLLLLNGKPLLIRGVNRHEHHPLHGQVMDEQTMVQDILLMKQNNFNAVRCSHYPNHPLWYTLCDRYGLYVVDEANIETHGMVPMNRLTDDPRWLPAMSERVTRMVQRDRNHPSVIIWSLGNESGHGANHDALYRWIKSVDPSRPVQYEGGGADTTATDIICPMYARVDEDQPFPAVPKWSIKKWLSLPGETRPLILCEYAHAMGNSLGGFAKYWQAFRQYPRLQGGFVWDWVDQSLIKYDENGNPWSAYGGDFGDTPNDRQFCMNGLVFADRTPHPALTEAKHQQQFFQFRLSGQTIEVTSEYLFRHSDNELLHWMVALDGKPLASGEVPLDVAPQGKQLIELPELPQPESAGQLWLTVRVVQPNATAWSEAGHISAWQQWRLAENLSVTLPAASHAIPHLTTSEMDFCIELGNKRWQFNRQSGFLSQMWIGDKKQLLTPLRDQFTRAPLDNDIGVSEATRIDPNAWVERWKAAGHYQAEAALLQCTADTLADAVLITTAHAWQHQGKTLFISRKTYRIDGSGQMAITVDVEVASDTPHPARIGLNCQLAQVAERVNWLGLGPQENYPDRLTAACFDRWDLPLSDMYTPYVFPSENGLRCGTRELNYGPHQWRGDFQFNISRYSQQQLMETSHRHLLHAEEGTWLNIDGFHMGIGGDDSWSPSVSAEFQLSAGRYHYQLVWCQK

Which IC50 (Beta-galactosidase) does the source give for `O=C(COc1ccc(Cl)cc1)N1CCN(Cc2ccc([N+](=O)[O-])cc2)CC1` here?
Its IC50 is > 80 µM (inactive).

Which IC50 [1] does the source give for `COc1ccc(C(=O)NCc2cc(C(C)C)no2)cc1OCCN1CCCCC1` here?
The IC50 was 0.76 µM (active).

For `C[C@@H]1CCCCO[C@@H](CN(C)Cc2ccc(Cl)c(Cl)c2)[C@H](C)CN([C@@H](C)CO)C(=O)c2cc(NC(=O)Nc3ccccc3)ccc2O1`, which AC50 [2] is on record?
Its AC50 is 3.09 µM (active).

And the AC50 (Paired box protein Pax-8)?
Its AC50 is 11.6 µM (active).

For `C[C@H]1CN([C@@H](C)CO)C(=O)c2cccc(NC(=O)c3nc4ccccc4s3)c2O[C@@H]1CN(C)C(=O)Nc1ccc2c(c1)OCO2`, which AC50 [3] is on record?
Its AC50 is 1.82 µM (active).

Which AC50 [4] does the source give for `CCN1CCN(C2=C(Nc3ccc(Cl)c(Cl)c3)C(=O)c3ccccc3C2=O)CC1` here?
Its AC50 is 21.1 µM (active).

And the AC50 [5]?
Its AC50 is 10.8 µM (active).

What about the AC50 [6] of the same molecule?
Its AC50 is 9.55 µM (active).

With `Cc1cccc(C(=O)Nc2nnc(SCC(=O)NCc3ccco3)s2)c1` as the molecule, how does the IC50 (Beta-lactamase [7]) read?
The IC50 was > 59.6 µM (inactive).

What about the IC50 (Beta-lactamase [8]) of the same molecule?
Its IC50 is > 59.6 µM (inactive).

What about the IC50 (Beta-lactamase [9]) of the same molecule?
The IC50 was > 59.6 µM (inactive).

With `CN1/C(=C\C=N\NC(=O)c2ccc(O)cc2)C(C)(C)c2ccccc21` as the molecule, how does the IC50 [10] read?
The IC50 was 31.1 µM (inactive).

And the IC50 (Large T antigen)?
Its IC50 is 20.5 µM (active).

And the AC50 (INS1)?
The AC50 was 5.43 µM (active).

What about the IC50 (Protein Wnt-3a) of the same molecule?
The IC50 was 15.4 µM (active).

And the IC50 [11]?
The IC50 was 60.3 µM (active).

And the CC50 [12]?
Its CC50 is 100 µM (active).

Which IC50 [13] does the source give for `O=c1c2cc([N+](=O)[O-])ccc2nc(CN2CCCCC2)n1-c1ccccc1F` here?
The IC50 was 4.7 µM (active).

With `COc1ccc(CCCNc2c3ccccc3nc3ccccc23)cc1OC` as the molecule, how does the IC50 [14] read?
The IC50 was 2.2 µM (active).

Reference: ChEMBL document CHEMBL1201862, “PubChem BioAssay data set” (2004)
